Results: patent US12338287B2, “Treatment of cancer using a CD33 chimeric antigen receptor” (Novartis AG, priority 2014, dated 2025)
Read-outs that look alike come from different tables or passages of the source.

What was measured:
[1] = tested on: CAR-expressing, transduced T cells; experiment: CART proliferation in co-culture with Nalm-6 cells in presence of RAD001; format: cell-based; details: CARTs co-cultured with Nalm-6 cells, different concentrations of RAD001, 4 days
Procedure: CARTs were co-cultured with Nalm-6 cells in the presence of different concentrations of RAD001. The number of CAR-positive CD3-positive T cells (black) and total T cells (gray) was assessed after 4 days of co-culture.

[2] = tested on: humanized CD19 CART cells; experiment: In vivo proliferation of humanized CD19 CART cells with and without RAD001; details: 0.003 mg/kg daily with huCTL019; CD4+ and CD8+ CAR T cells
Procedure: FIGS. 57A and 57B show in vivo proliferation of humanized CD19 CART cells with and without RAD001 dosing. […] Circles denote PBS; squares denote huCTL019; triangles denote huCTL019 with 3 mg/kg RAD001; inverted triangles denote huCTL019 with 0.3 mg/kg RAD001; diamonds denote huCTL019 with 0.03 mg/kg RAD001; and circles denote huCTL019 with 0.003 mg/kg RAD001.

[3] = tested on: huCART19 cells co-cultured with Nalm-6; experiment: Effect of RAD001 on CART proliferation, 4 day co-culture; format: cell-based, human
Procedure: To evaluate the functionality of CARTs, the T cells are thawed and counted, and viability is assessed by Cellometer. The number of CAR-positive cells in each culture is normalized using non-transduced T cells (UTD). The impact of RAD001 on CARTs was tested in titrations with RAD001, starting at 50 nM. The target cell line used in all co-culture experiments is Nalm-6, a human pre-B cell acute lymphoblastic leukemia (ALL) cell line expressing CD19 and transduced to express luciferase.
For measuring the proliferation of CARTs, T cells are cultured with target cells at a ratio of 1:1. The assay is run for 4 days, when cells are stained for CD3, CD4, CD8 and CAR expression. The number of T cells is assessed by flow cytometry using counting beads as reference.

[4] = tested on: NALM6-luc tumors; experiment: RAD001 alone on NALM6-luc tumor growth; format: in vivo, NSG mice; details: daily oral dosing of RAD001 alone; FIG. 55
Procedure: NALM6-luc cells: The NALM6 human acute lymphoblastic leukemia (ALL) cell line was developed from the peripheral blood of a patient with relapsed ALL. The cells were then tagged with firefly luciferase. These suspension cells grow in RPMI supplemented with 10% heat inactivated fetal bovine serum.
Mice: 6 week old NSG (NOD.Cg-Prkdc^scidIl2rg^tmIWjl/SzJ) mice were received from the Jackson Laboratory (stock number 005557).
Tumor implantation: NALM6-luc cells were grown and expanded in vitro in RPMI supplemented with 10% heat inactivated fetal bovine serum. The cells were then transferred to a 15 ml conical tube and washed twice with cold sterile PBS. NALM6-luc cells were then counted and resuspended at a concentration of 10×10^6 cells per milliliter of PBS. The cells were placed on ice and immediately (within one hour) implanted in the mice. NALM6-luc cells were injected intravenously via the tail vein in a 100 μl volume, for a total of 1×10^6 cells per mouse.
(§1) RAD001 dosing: A concentrated micro-emulsion of 50 mg equal to 1 mg RAD001 was formulated and then resuspended in D5W (dextrose 5% in water) at the time of dosing. Mice were orally dosed daily (via oral gavage) with 200 μl of the desired doses of RAD001.

[5] = RAD001 PK analysis in tumor bearing mice; format: in vivo, NSG mice; details: for concentration at 24 h: NSG, mouse, whole blood
Procedure: as §1
PK analysis: Mice were dosed daily with RAD001 starting 7 days post tumor implantation. Dosing groups were as follows: 0.3 mg/kg, 1 mg/kg, 3 mg/kg, and 10 mg/kg. Mice were bled on days 0 and 14 following the first and last dose of RAD001, at the following time points for PK analysis: 15 minutes, 30 minutes, 1 hour, 2 hours, 4 hours, 8 hours, 12 hours, and 24 hours.

[6] = tested on: huCAR19 CAR T cells; experiment: CAR T cell expansion in vivo with RAD001 (FACS); design: species or system NSG mice; details: lowest doses of RAD001, daily oral; FIG. 57
Procedure: CAR T cell dosing: Mice were administered 5×10^6 CAR T cells 7 days after tumor implantation. Cells were partially thawed in a 37 degree Celsius water bath and then completely thawed by the addition of 1 ml of cold sterile PBS to the tube containing the cells. The thawed cells were transferred to a 15 ml falcon tube and adjusted to a final volume of 10 mls with PBS. The cells were washed twice at 1000 rpm for 10 minutes each time and then counted on a hemocytometer. T cells were then resuspended at a concentration of 50×10^6 CAR T cells per ml of cold PBS and kept on ice until the mice were dosed. The mice were injected intravenously via the tail vein with 100 μl of the CAR T cells for a dose of 5×10^6 CAR T cells per mouse. Eight mice per group were treated either with 100 μl of PBS alone (PBS), or humanized CD19 CAR T cells.
as §1
Based on these doses, huCAR19 CAR T cells were dosed with and without RAD001 to determine the proliferative ability of these cells. The highest dose used was 3 mg/kg based on the levels of RAD001 in the blood 24 hours after dosing. […] Mice were monitored via FACS for T cell expansion.

[7] = target: hsCD33 (Homo sapiens, UniProt P20138); experiment: Cell surface scFv on JNL cells detected with recombinant Fc-tagged hsCD33; format: binding; details: recombinant Fc-tagged hsCD33, PE secondary antibody; relative to GFP or CD19 scFv JNL cells
Sequence of hsCD33 (P20138 18-259 limits assumed): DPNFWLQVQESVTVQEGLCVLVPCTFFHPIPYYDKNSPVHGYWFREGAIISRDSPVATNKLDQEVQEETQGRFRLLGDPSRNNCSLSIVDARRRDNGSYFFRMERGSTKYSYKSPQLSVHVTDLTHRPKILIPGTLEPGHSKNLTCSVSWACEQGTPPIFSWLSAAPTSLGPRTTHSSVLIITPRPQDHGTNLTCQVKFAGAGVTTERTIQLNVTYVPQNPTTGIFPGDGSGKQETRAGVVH
Procedure: (§2) FIG. 27 is an image depicting the cell surface expression of scFvs on a Jurkat T cell line, which contains a luciferase reporter driven by an NFAT-regulated promoter (termed JNL cells). JNL cells were transduced with a lentiviral vector expressing a cDNA encoding GFP, a scFv that binds to CD19, or cDNAs that encode an scFv, which was raised against hsCD33. The cell surface expression of individual scFv's on JNLs was detected by incubating cells with recombinant Fc-tagged hsCD33 followed by incubation with an Fc-specific secondary antibody conjugated to phycoerythrin.
as §2, with “To depict the” for “FIG. 27 is an image depicting the”, “of scFv's” for “of scFvs”, “JNL cells),” for “JNL cells).”, “GFP, an” for “GFP, a”, “against hsCD33 (FIG. 27).” for “against hsCD33.”

[8] = tested on: protein L; experiment: Protein L binding of scFv on JNL cells; details: data not shown
[9] = tested on: MOLM13; experiment: NFAT-dependent luciferase reporter activation of JNL cells; format: cell-based; details: JNL cells co-cultured with MOLM13 relative to MOLP8 or GFP JNL cells; 24 hours
Text: FIGS. 28A, 28B, 28C, and 28D are images showing the ability of individual scFv's targeting hsCD33 to elicit NFAT activity in JNL cells. JNL cells expressing scFv's against hsCD33 were co-cultured with MOLM13 or MOLP8 cell lines, which express hsCD33 or lack hsCD33 cell surface expression, respectively (FIG. 28A; hsCD33, solid green line; isotype control, gray dashed line and shaded area). FIG. 28B depicts the activation of JNL cells expressing an scFv targeting hsCD33 in the presence of MOLM13 (solid lines) or MOLP8 (dashed lines) cells. JNL cells expressing individual scFv's were plated at different effector (i.e. JNL cells) to target (i.e. MOLM13 or MOLP8) ratios and analyzed for the expression of relative luciferase units (RLUs) using the Bright-Glo™ Luciferase Assay on the EnVision instrument 24 hours post-incubation. FIG. 28C is a version of FIG. 28B, depicting the activation of JNL cells in the presence of MOLM13. […]
Individual scFv's targeting hsCD33 were evaluated for their ability to elicit NFAT activity in JNL cells (FIG. 28). […] JNL cells expressing individual scFv's were plated at different effector (i.e. JNL cells) to target (i.e. MOLM13 or MOLP8) ratios and analyzed for the expression of relative luciferase units (RLUs) using the Bright-Glo™ Luciferase Assay on the EnVision instrument 24 hours post-incubation.

[10] = target: recombinant Fc-tagged hsCD33 (Homo sapiens, UniProt P20138); experiment: scFv binding to recombinant CD33 by flow cytometry (JNL cells); details: scFv on JNL cells, Fc-tagged hsCD33, PE secondary; FIG. 32
Sequence of recombinant Fc-tagged hsCD33 (P20138 18-259 limits assumed): as above
Procedure: Finally, scFv cross-reactivity to cynomolgus CD33 (cyCD33) was assessed by flow cytometry as depicted in FIG. 32. JNL cells transduced with a lentiviral vector expressing scFv's raised against hsCD33 were incubated with either recombinant Fc-tagged hsCD33 (red line) or cyCD33 (blue line) followed by incubation with an Fc-specific secondary antibody conjugated to phycoerythrin.

Q: With `CO[C@H]1C[C@@H]2CC[C@@H](C)[C@@](O)(O2)C(=O)C(=O)N2CCCC[C@H]2C(=O)O[C@H]([C@H](C)C[C@@H]2CC[C@@H](OCCO)[C@H](OC)C2)CC(=O)[C@H](C)/C=C(\C)[C@@H](O)[C@@H](OC)C(=O)[C@H](C)C[C@H](C)/C=C/C=C/C=C/1C` [RAD001, (1R,9S,12S,15R,16E,18R,19R,21R,23 S,24E,26E,28E,30S,32S,35R)-1,18-dihydroxy-12-{(1R)-2-[(1 S,3R,4R)-4-(2-hydroxyethoxy)-3-methoxycyclohexyl]-1-methylethyl}-19,30-dimethoxy-15,17,21,23,29,35-hexamethyl-11,36-dioxa-4-aza-tricyclo[30.3.1.04,9]hexatriaconta-16,24,26,28-tetraene-2,3,10,14,20-pentaone] as the molecule, how does the “Proliferation of CAR-expressing, transduced T cells” value [1] read?
A: enhanced by low doses of RAD001

Q: And the “CAR T cell proliferation in vivo” value [2]?
A: enhancement in CAR T cell proliferation, above the normal level of huCAR19 proliferation

Q: And the “Proliferation of huCART19 cells” value ([3]; 0.0032 and 0.016 nM RAD001, 4 day co-culture with Nalm-6, FIG. 54)?
A: proliferation was higher than observed without the addition of RAD001

Q: And the “RAD001 concentration at which huCART19 cells expanded” value ([3]; 4 day co-culture with Nalm-6)?
A: less than 0.016 nM

Q: And the “Growth of NALM6-luc tumors” value [4]?
A: did not have an impact on the growth of NALM6-luc tumors

Q: What about the concentration at 24 h ([5]; oral, 0.3 mg/kg, 24 hours after the final dose of RAD001, read-out: Concentration of RAD001) of the same molecule?
A: > 10 nM

Q: And the concentration at 24 h ([5]; 24 hours after dosing, 0.3 mg/kg oral, day 0 and day 14, read-out: RAD001 concentrations in the blood)?
A: > 10 nM

Q: What about the “Stability in the blood” value ([5]; tumor bearing mice, FIGS. 56A, 56B) of the same molecule?
A: fairly stable in the blood

Q: And the “Proliferation of the CAR T cells in vivo” value [6]?
A: enhanced proliferation of the CAR T cells

B1: CD33-8: fully human anti-CD33 scFv CAR with 4-1BB and CD3zeta; full CAR SEQ ID NO: 55, scFv SEQ ID NO: 46 (protein)
chain: MALPVTALLLPLALLLHAARPQVQLVQSGAEVKKPGASVRVSCKASGYMFTDFFIHWVRQAPGQGLEWMGWINPNSGVTKYAQKFQGRVTMTRNTSISTAYMELSSLRSEDTAVYYCATWYSSGWYGIANIWGQGTMVTVSSASGGGGSGGGGSGGGGSDIQLTQSPSSLSASVGDRVTITCQASHDISNYLHWYQQKPGKAPKLLIYDASNLETGVPSRFTGSGSGTDFTLTIRSLQPEDVAAYYCQQSDDLPHTFGQGTKVDIKTTTPAPRPPTPAPTIASQPLSLRPEACRPAAGGAVHTRGLDFACDIYIWAPLAGTCGVLLLSLVITLYCKRGRKKLLYIFKQPFMRPVQTTQEEDGCSCRFPEEEEGGCELRVKFSRSADAPAYKQGQNQLYNELNLGRREEYDVLDKRRGRDPEMGGKPRRKNPQEGLYNELQKDKMAEAYSEIGMKGERRRGKGHDGLYQGLSTATKDTYDALHMQALPPR
Q: With B1 as the molecule, how does the “Binding to hsCD33 (cell surface scFv on JNL cells)” value [7] read?
A: lacked appreciable binding to either hsCD33 or protein L

Q: What about the “Binding to protein L” value [8] of the same molecule?
A: lacked appreciable binding to either hsCD33 or protein L

B2: CD33-UPenn: an scFv based on the sequence of Mylotarg, a monoclonal antibody that binds to the human CD33 antigen (protein)
chain: EIVLTQSPGSLAVSPGERVTMSCKSSQSVFFSSSQKNYLAWYQQIPGQSPRLLIYWASTRESGVPDRFTGSGSGTDFTLTISSVQPEDLAIYYCHQYLSSRTFGQGTKLEIKRGGGGSGGGGSSGGGSQVQLQQPGAEVVKPGASVKMSCKASGYTFTSYYIHWIKQTPGQGLEWVGVIYPGNDDISYNQKFQGKATLTADKSSTTAYMQLSSLTSEDSAVYYCAREVRLRYFDVWGQGTTVTVSS
modifications: left off: small tags and cut ends
Q: Which “NFAT-dependent luciferase activity (RLUs)” value [9] does the source give for B2 here?
A: capable of triggering NFAT-dependent luciferase activity

Q: And the “Binding of hsCD33” value [10]?
A: capable of binding hsCD33
